Results as given in ChEMBL document CHEMBL1201862, “PubChem BioAssay data set” (2004).
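Briefly, cells in 96-well plates were exposed to five compound concentrations for 48 h, and endpoints were estimated by linear interpolation. GI50 is the concentration that inhibits growth by half.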 Activity calls are given as the source filed them. No stated cut-off is given here; in the data, active = GI50 up to about 1.1 µM and inactive = higher.

Key:
Test in all cases: DTP human tumour cell line panel, 48 h
HL-60 = test system: HL-60
DMS-114 = test system: DMS-114
KM-20L2 = test system: KM-20L2
LOX IMVI = test system: LOX IMVI
CAKI-1 = test system: CAKI-1
SNB-78 = test system: SNB-78
XF498 = test system: XF498
SK-MEL-2 = test system: SK-MEL-2
TK-10 = test system: TK-10
K562 = test system: K562
LXFL 529 = test system: LXFL 529
IGROV-1 = test system: IGROV-1
M14 = test system: M14
SF-539 = test system: SF-539
MOLT-4 = test system: MOLT-4
RXF 631 = test system: RXF 631
NCI-H226 = test system: NCI-H226
UACC-257 = test system: UACC-257
RPMI-8226 = test system: RPMI-8226
NCI-H23 = test system: NCI-H23
EKVX = test system: EKVX
SK-MEL-28 = test system: SK-MEL-28
Malme-3M = test system: Malme-3M
ACHN = test system: ACHN
HCC 2998 = test system: HCC 2998
COLO 205 = test system: COLO 205
M19-MEL = test system: M19-MEL
A498 = test system: A498
CCRF-CEM = test system: CCRF-CEM
SK-MEL-5 = test system: SK-MEL-5
A549 = test system: A549
OVCAR-4 = test system: OVCAR-4
KM12 = test system: KM12
OVCAR-5 = test system: OVCAR-5
SW-620 = test system: SW-620
RXF 393 = test system: RXF 393
OVCAR-8 = test system: OVCAR-8
HOP-92 = test system: HOP-92
NCI-H522 = test system: NCI-H522
SNB-75 = test system: SNB-75
HCT-15 = test system: HCT-15
HOP-62 = test system: HOP-62
SF-295 = test system: SF-295
UACC-62 = test system: UACC-62
U-251 = test system: U-251
HT-29 = test system: HT-29
NCI-H460 = test system: NCI-H460
SF-268 = test system: SF-268
DLD-1 = test system: DLD-1
SN12C = test system: SN12C
SK-OV-3 = test system: SK-OV-3
UO-31 = test system: UO-31
786-0 = test system: 786-0
HCT-116 = test system: HCT-116

Structure (SMILES): COc1ccc(COCC(Cn2ccnc2)OCc2ccc(C(=O)O)cc2)cc1 (centres undefined)
- GI50 (HL-60): > 100 µM (inactive)
- GI50 (DMS-114): > 100 µM (inactive)
- GI50 (KM-20L2): > 100 µM (inactive)
- GI50 (LOX IMVI): > 100 µM (inactive)
- GI50 (CAKI-1): > 100 µM (inactive)
- GI50 (SNB-78): > 100 µM (inactive)
- GI50 (XF498): > 100 µM (inactive)
- GI50 (SK-MEL-2): > 100 µM (inactive)
- GI50 (TK-10): > 100 µM (inactive)
- GI50 (K562): > 100 µM (inactive)
- GI50 (LXFL 529): > 100 µM (inactive)
- GI50 (IGROV-1): > 100 µM (inactive)
- GI50 (M14): > 100 µM (inactive)
- GI50 (SF-539): > 100 µM (inactive)
- GI50 (MOLT-4): > 100 µM (inactive)
- GI50 (RXF 631): > 100 µM (inactive)
- GI50 (NCI-H226): > 100 µM (inactive)
- GI50 (UACC-257): > 100 µM (inactive)
- GI50 (RPMI-8226): > 100 µM (inactive)
- GI50 (NCI-H23): > 100 µM (inactive)
- GI50 (EKVX): > 100 µM (inactive)
- GI50 (SK-MEL-28): > 100 µM (inactive)
- GI50 (Malme-3M): > 100 µM (inactive)
- GI50 (ACHN): > 100 µM (inactive)
- GI50 (HCC 2998): > 100 µM (inactive)
- GI50 (COLO 205): > 100 µM (inactive)
- GI50 (M19-MEL): > 100 µM (inactive)
- GI50 (A498): > 100 µM (inactive)
- GI50 (CCRF-CEM): > 100 µM (inactive)
- GI50 (SK-MEL-5): > 100 µM (inactive)
- GI50 (A549): > 100 µM (inactive)
- GI50 (OVCAR-4): > 100 µM (inactive)
- GI50 (KM12): > 100 µM (inactive)
- GI50 (OVCAR-5): > 100 µM (inactive)
- GI50 (SW-620): > 100 µM (inactive)
- GI50 (RXF 393): > 100 µM (inactive)
- GI50 (OVCAR-8): > 100 µM (inactive)
- GI50 (HOP-92): > 100 µM (inactive)
- GI50 (NCI-H522): > 100 µM (inactive)
- GI50 (SNB-75): 59.6 µM (inactive)
- GI50 (HCT-15): > 100 µM
- GI50 (HOP-62): > 100 µM (inactive)
- GI50 (SF-295): > 100 µM (inactive)
- GI50 (UACC-62): > 100 µM (inactive)
- GI50 (U-251): > 100 µM (inactive)
- GI50 (HT-29): > 100 µM (inactive)
- GI50 (NCI-H460): > 100 µM (inactive)
- GI50 (SF-268): > 100 µM (inactive)
- GI50 (DLD-1): > 100 µM (inactive)
- GI50 (SN12C): > 100 µM (inactive)
- GI50 (SK-OV-3): > 100 µM (inactive)
- GI50 (UO-31): > 100 µM (inactive)
- GI50 (786-0): > 100 µM (inactive)
- GI50 (HCT-116): > 100 µM (inactive)
